{"source": "patent US20190382827A1", "about": "“USE OF MICROBIAL METABOLITES FOR TREATING DISEASES” (Yeda Research and Development Co. Ltd., priority 2015, published 2019)", "key": {"NLRP6 inflammasome [1]": {"tested_on": "NLRP6 inflammasome", "assay": "Colon explants cultured with metabolites (IL-18 ELISA, caspase-1 immunoblot, gene expression)", "assay_type": "cell-based, mouse", "settings": "for IL-18 protein levels: Nlrp3-/- explants; for IL-18 suppression with increasing doses: colonic explant-based validation screen; for IL-18 transcript (mRNA) levels / caspase-1 cleavage / processing: colonic explants; for caspase-1 cleavage / processing: 12 hours incubation, immunoblot p45/p20; for suppression of IL-18 secretion, metabolite screen: cultured WT colon explants", "experimental": "Colons were excised and washed thoroughly with PBS, homogenized in RIPA buffer containing protease inhibitors, incubated for 20 min in 4° C. and centrifuged for 20 min, 14,000 rpm at 4° C. Samples were separated on 15% acrylamide gels and transferred onto nitrocellulose membranes. Western blot analysis was performed using anti-caspase 1 p20 polyclonal antibody (Adipogen, AG-20B-0042B-C100) and Goat anti mouse antibody (Jackson ImmunoResearch, 115-035-003). Band density was calculated using ImageJ software. Colon pieces, 0.5 cm long, from the proximal colon were removed, rinsed with PBS, and weighed. The tissue explants were cultured for 24 hrs in DMEM medium containing 10% FBS, L-glutamine, penicillin, and streptomycin at 37° C. Culture medium was collected, centrifuged and the resulting supernatant stored in aliquots at -20° C. Concentrations of IL-18 in the serum or culture supernatants were measured using ELISA. […] Samples were then washed and plates were incubated with anti-mouse IL-18-biotin antibody ([…]-6 MBL) for 1 hour and HRP-Avidin (BioLegend) for 1 hour before quantification. […] For AMP induction in-vitro, 3 μg IL-18 were added to colon explants for 7 hours, then the explants were maintained in RNAlater and RNA was extracted. Tissues were preserved in RNAlater solution (Ambion) and subsequently homogenized in Tri Reagent (Fox et al.). RNA was purified according to the manufacturer's instructions. Two microgram of total RNA was used to generate cDNA (HighCapacity cDNA Reverse Transcription kit; Applied Biosystems). RealTime-PCR was performed using gene-specific primer/probe sets (Applied Biosystems) and Kapa Probe Fast qPCR kit (Kapa Biosystems) on a Viia7 instrument (Applied Biosystems). PCR conditions were 95° C. for 20 s, followed by 40 cycles of 95° C. for 3 s and 60° C. for 30 s. Data were analyzed using the deltaCt method with hprt serving as the reference housekeeping gene."}, "intestinal microbiota": {"tested_on": "intestinal microbiota", "assay": "16S analysis of microbiota of mice given metabolites in drinking water", "assay_type": "in vivo, mouse", "source_text": "Frozen fecal samples were processed for DNA isolation using the MoBio PowerSoil kit according to the manufacturer's instructions. For the 16S rRNA gene PCR amplification, ing of the purified fecal DNA was used for PCR amplification. Amplicons spanning the variable region 1/2 (V1/2) of the 16S rRNA gene were generated by using the following barcoded primers: Fwd 5′-XXXXXXXXAGAGTTTGATCCTGGCTCAG-3′ (SEQ ID NO: 1), Rev 5′-[…]-3′ (SEQ ID NO: 2), where X represents a barcode base. The reactions were subsequently pooled and cleaned (PCR clean kit, Promega), and the PCR products were then sequenced on an Illumina MiSeq in 500 bp paired-end method. The reads were then processed using the QIIME (Quantitative Insights Into Microbial Ecology, www(dot)qiime(dot)org) analysis pipeline as described (Caporaso et al., 2010; Elinav et al., 2011). In brief, fasta quality files and a mapping file indicating the barcode sequence corresponding to each sample were used as inputs, reads were split by samples according to the barcode, taxonomical classification was performed using the RDP-classifier, and an OTU table was created. Closed-reference OTU mapping was employed using the Greengenes database. Rarefaction was used to exclude samples with insufficient count of reads per sample. Sequences sharing 97% nucleotide sequence identity in the V2 region were binned into operational taxonomic units (97% ID OTUs). For beta-diversity, weighted unifrac measurements were plotted according to the two principal coordinates based on 1,000 reads per sample. The OTU tables used for our analyses are made accessible online."}, "commensal bacteria": {"tested_on": "commensal bacteria", "assay": "Anaerobic microbiota cultures supplemented with metabolites", "set-up": "species or system mouse", "settings": "anaerobic culturing"}, "NLRP6 inflammasome [2]": {"tested_on": "NLRP6 inflammasome", "settings": "for taurine-mediated increase in IL-18 production: organoids, histamine and spermine supplemented in addition to taurine", "experimental": "(I, J) IL-18 production by WT (I) and Nlrp6^−/− (J) colonic organoids incubated with either taurine or taurine+histamine+spermine.\n(K) Representative organoid images from experiments shown in (I) and (J)."}}}
{"compound": "NCCc1c[nH]cn1", "note": "[histamine]", "values": [{"measurement": "IL-18 protein levels", "setting": "NLRP6 inflammasome [1]", "value": "decreased"}, {"measurement": "IL-18 suppression with increasing doses", "setting": "NLRP6 inflammasome [1]", "value": "concentration-dependent IL-18 suppressive functions"}, {"measurement": "IL-18 transcript (mRNA) levels", "setting": "NLRP6 inflammasome [1]", "value": "no change"}, {"measurement": "caspase-1 cleavage / processing", "setting": "NLRP6 inflammasome [1]", "value": "reduced"}, {"measurement": "suppression of IL-18 secretion, metabolite screen", "setting": "NLRP6 inflammasome [1]", "value": "strongest suppressors"}, {"measurement": "composition of the intestinal microbiota", "setting": "intestinal microbiota; WT mice", "value": "induced compositional changes"}, {"measurement": "composition of anaerobic microbiota cultures", "setting": "commensal bacteria", "value": "did not feature significant compositional alterations"}, {"measurement": "organoid (spheroid) growth or morphology", "setting": "NLRP6 inflammasome [2]", "value": "not affecting"}, {"measurement": "taurine-mediated increase in IL-18 production", "setting": "NLRP6 inflammasome [2]", "value": "diminished"}]}
{"compound": "NCCCNCCCCNCCCN", "note": "[spermine]", "values": [{"measurement": "IL-18 protein levels", "setting": "NLRP6 inflammasome [1]", "value": "decreased"}, {"measurement": "IL-18 suppression with increasing doses", "setting": "NLRP6 inflammasome [1]", "value": "concentration-dependent IL-18 suppressive functions"}, {"measurement": "IL-18 transcript (mRNA) levels", "setting": "NLRP6 inflammasome [1]", "value": "no change"}, {"measurement": "caspase-1 cleavage / processing", "setting": "NLRP6 inflammasome [1]", "value": "reduced"}, {"measurement": "suppression of IL-18 secretion, metabolite screen", "setting": "NLRP6 inflammasome [1]", "value": "strongest suppressors"}, {"measurement": "composition of the intestinal microbiota", "setting": "intestinal microbiota; WT mice", "value": "induced compositional changes"}, {"measurement": "composition of anaerobic microbiota cultures", "setting": "commensal bacteria", "value": "did not feature significant compositional alterations"}, {"measurement": "organoid (spheroid) growth or morphology", "setting": "NLRP6 inflammasome [2]", "value": "not affecting"}, {"measurement": "taurine-mediated increase in IL-18 production", "setting": "NLRP6 inflammasome [2]", "value": "diminished"}]}
{"compound": "NCCS(=O)(=O)O", "note": "[taurine]", "values": [{"measurement": "AMPs (Ang4) expression", "setting": "NLRP6 inflammasome [1]; WT explants cultured for 8 hours", "value": "induced upregulation"}, {"measurement": "dependence of IL-18 induction on NLRP6 / NLRP3", "setting": "NLRP6 inflammasome [1]; WT, Nlrp6-/- and Nlrp3-/- colon explants", "value": "dependent on NLRP6, but not on NLRP3"}, {"measurement": "inflammasome suppression (IL-18 production) by spermine or histamine upon concomitant taurine", "setting": "NLRP6 inflammasome [1]; colon explants cultured with histamine and spermine, with addition of taurine", "value": "rescued"}, {"measurement": "caspase-1 cleavage / processing", "setting": "NLRP6 inflammasome [1]", "value": "enhanced"}, {"measurement": "IL-18 induction", "setting": "NLRP6 inflammasome [1]; sterile WT colonic explants, metabolite screen and increasing doses", "value": "strongest dose-dependent inductive activity"}, {"measurement": "composition of the intestinal microbiota", "setting": "intestinal microbiota; Asc-/- or Nlrp6-/- mice", "value": "did not occur"}, {"measurement": "composition of the intestinal microbiota", "setting": "intestinal microbiota; WT mice", "value": "induced compositional changes"}, {"measurement": "composition of anaerobic microbiota cultures", "setting": "commensal bacteria", "value": "did not feature significant compositional alterations"}, {"measurement": "organoid (spheroid) growth or morphology", "setting": "NLRP6 inflammasome [2]", "value": "not affecting"}, {"measurement": "IL-18 secretion", "setting": "NLRP6 inflammasome [2]; WT organoids", "value": "induced"}]}
